This passage reports melting point and IC50 results from patent US7935706B2, “Nitrogen-containing heterocycle derivatives substituted with cyclic group” (Shionogi & Co., Ltd., priority 2006, dated 2011).

One series deals with T1, NR1/NR2B receptor (Rattus norvegicus, UniProt P35439+Q00960).
T1 construct: from tissue; host or cells: rat cerebral cortex membranes (male Slc: Wistar rat)
Nature of the series: Test of binding with NMDA receptor (NR1/NR2B receptor): competition with [3H]-Ifenprodil on rat cerebral cortex membrane specimen. Here is the method: Test of Binding with NMDR Receptor (NR1/NR2B Receptor)
Using Ifenprodil which is an antagonist specific for a NR1/NR2B subtype receptor as a ligand, an experiment of competition between a receptor and a test compound was performed.
Using a male Slc: Wistar rat as an animal, a brain was isolated after decapitation, and a cerebral cortex was fractionated. The cerebral cortex was homogenized with a 20-fold amount of an ice-cooled 50 mM Tris/HCl buffer (pH 7.4), and the homogenate was centrifuged at 4° C. and 27,500×g for 10 minutes. The resulting precipitate was suspended in the same buffer, and this was again centrifuged. This operation was repeated for three times, the resulting precipitate was suspended in a buffer, and this was stored at −80° C. Immediately before an experiment, the frozen suspension was thawed at room temperature, this was centrifuged at 4° C. and 27,500×g for 10 minutes, and the resulting precipitate was suspended in a buffer. Further, the suspension was diluted 10-fold with a buffer, and this was used as a membrane specimen in an experiment. In a binding experiment, to 470 μl of the membrane specimen were added […] of each of test compounds having different concentrations, 10 μl of a labeled ligand [^3H]-Ifenprodil and 10 μl GBR-12909, followed by incubation at an ice temperature for 120 minutes. A concentration of [^3H]-Ifenprodil of the labeled ligand was finally 5 nM, and a concentration of GBR-12909 was finally 3 μM. For measuring a total binding amount, DMSO as a solvent was used and, for measuring a non-specific binding amount, 100 μM Ifenprodil was used. GBR-12909 was added in order to block binding of [^3H]-Ifenprodil to non-polyamine-sensitive site. After incubation, a bound formand a free foramwere separated using Whatman GF/C filter (manufactured by Whatman), and the filter was washed with 2.5 ml ice-cooled buffer four times. The filter was immersed in liquid scintillation (Cryasol I, manufactured by Nacalai tesque), and radioactivity (dpm) was measured with a liquid scintillation counter. From a measured value, a binding inhibition rate (%) was obtained by the following equation, and a dose at which binding is inhibited 50% (IC50) was calculated. A formula of GBR-12909 (vanoxerine) is shown below.
Binding inhibition rate(%)=100−[(binding amount in the presence of test compound−non-specific binding amount)/(total binding amount−non-specific binding amount)]×100

Series [1] concerns the target T2, NMDA receptor (NR1 subunit and NR2B subunit) (Mus musculus, UniProt P35438+Q01097).
T2 construct: expressed in transfected cells; host or cells: HEK293 cells, transient transfection with pcDNA3.1 plasmids
Nature of the series: Measurement of expression of NMDA receptor and Ca ion influx amount (glutamic acid/glycine-induced, HEK293 cell co-expressing NR1 and NR2B subunits, Fluo-3/AM). In kind it is cell-based. As to the method:
Measurement of Expression of NMDA Receptor and Ca Ion Influx Amount
A complementary DNA (cDNA) of a mouse NMDA receptor subunit was transiently introduced into a HEK293 cell and, after 1 day from introduction, change in a glutamic acid/glycine-induced intracelluar Ca amount was measured using a Ca ion reactive fluorescent coloring matter.
The HEK293 cell was cultured, and passaged using a modified Dulbecco's Eagle medium (DMEM, low glucose).
The HEK293 cell (20,000/well) was seeded on a 96-well plate, a NR1 subunit and a NR2B subunit of the NMDA receptor incorporated into the pcDNA3.1 plasmid were transiently introduced into a cell, and the subunits were co-expressed. An introduction amount of a DNA was 0.025 μg in the case of the NR1 subunit, and 0.075 μg in the case of NR2B subunit per well. For the cell after introduction, cell death was inhibited using 50 μM of the NMDA receptor antagonist MK-801.
For adjusting a test compound and washing a cell, Krebs/Ringer/Hepes buffer (KRH, Ca: 5 mM) was used.
After 1 day from introduction, the NMDA receptor antagonist MK-801 was washed out using the KRH buffer, and a Ca ion indication fluorescent coloring matter Fluo-3/AM was made to be taken into the cell. Ca ion influx was induced with 20 μM glutamic acid/2 μM glycine. Change in a fluorescent amount due to Ca ion influx into the cell was measured at excitation of 480 nm using a fluorescent imaging system FDSS 3000.
From a measured value of the test compound, a Ca ion influx inhibition rate (%) was obtained by the following equation, and a dose at which influx is inhibited 50% (IC50) was calculated.
Ca ion influx inhibition rate(%)=100−[(fluorescent amount in the presence of test compound−background fluorescent amount)/(total fluorescent amount−background fluorescent)]×100

Where [2] appears, read: [3H]-Ifenprodil 5 nM, GBR-12909 3 μM, rat cerebral cortex membranes, ice temperature 120 minutes, read-out: NR2B (IC50 μM).
Where [3] appears, read: Ca ion influx induced with 20 μM glutamic acid/2 μM glycine, HEK293 cell with mouse NR1/NR2B, read-out: Ca2+ IC50.
Where [4] appears, read: same binding test, read-out: IC50 (binding with NR1/NR2B receptor).
The mark [5] stands for this setting: same Ca ion influx test, read-out: IC50 (Ca ion influx inhibition).

The structures appear in SMILES notation. Read-outs that look alike come from different tables or passages of the source.

T1 sequence (Q00960 27-1482, other chains not shown): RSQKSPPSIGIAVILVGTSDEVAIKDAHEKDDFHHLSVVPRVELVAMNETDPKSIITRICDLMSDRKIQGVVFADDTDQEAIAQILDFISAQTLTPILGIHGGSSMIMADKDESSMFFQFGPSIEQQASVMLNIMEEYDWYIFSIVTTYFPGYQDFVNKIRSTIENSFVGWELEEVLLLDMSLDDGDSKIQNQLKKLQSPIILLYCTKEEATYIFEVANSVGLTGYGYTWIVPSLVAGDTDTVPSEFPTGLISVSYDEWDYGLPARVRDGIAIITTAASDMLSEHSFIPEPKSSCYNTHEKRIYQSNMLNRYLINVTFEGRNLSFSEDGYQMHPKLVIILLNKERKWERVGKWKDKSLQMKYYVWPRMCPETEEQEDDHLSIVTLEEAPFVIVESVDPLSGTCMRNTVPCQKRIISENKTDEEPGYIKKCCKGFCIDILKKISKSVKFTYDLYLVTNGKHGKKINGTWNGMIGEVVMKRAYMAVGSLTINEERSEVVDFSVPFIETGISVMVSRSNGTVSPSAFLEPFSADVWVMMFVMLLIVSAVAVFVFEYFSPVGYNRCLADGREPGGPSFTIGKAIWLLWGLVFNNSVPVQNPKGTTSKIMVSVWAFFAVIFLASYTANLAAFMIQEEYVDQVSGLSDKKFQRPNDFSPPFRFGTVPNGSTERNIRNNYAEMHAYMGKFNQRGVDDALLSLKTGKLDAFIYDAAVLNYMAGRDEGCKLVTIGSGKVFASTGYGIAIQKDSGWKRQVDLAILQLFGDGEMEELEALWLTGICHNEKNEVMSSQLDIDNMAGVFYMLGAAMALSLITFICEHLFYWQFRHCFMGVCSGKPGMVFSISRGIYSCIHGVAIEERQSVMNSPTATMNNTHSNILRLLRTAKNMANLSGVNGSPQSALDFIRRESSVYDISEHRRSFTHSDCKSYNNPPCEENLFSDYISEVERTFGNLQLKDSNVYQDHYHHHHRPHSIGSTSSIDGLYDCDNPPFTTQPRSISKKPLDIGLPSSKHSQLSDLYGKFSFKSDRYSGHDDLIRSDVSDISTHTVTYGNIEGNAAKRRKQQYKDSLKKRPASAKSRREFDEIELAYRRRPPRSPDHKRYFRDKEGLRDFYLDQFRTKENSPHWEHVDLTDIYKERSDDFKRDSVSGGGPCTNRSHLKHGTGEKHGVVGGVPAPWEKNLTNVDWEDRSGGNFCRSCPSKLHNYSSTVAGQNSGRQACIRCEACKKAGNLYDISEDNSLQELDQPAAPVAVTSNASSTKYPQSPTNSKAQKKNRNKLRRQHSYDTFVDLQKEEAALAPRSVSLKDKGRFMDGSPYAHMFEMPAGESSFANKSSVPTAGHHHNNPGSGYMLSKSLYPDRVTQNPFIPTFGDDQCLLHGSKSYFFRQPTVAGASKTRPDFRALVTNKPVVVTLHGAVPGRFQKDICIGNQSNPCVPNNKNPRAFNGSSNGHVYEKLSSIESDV
T2 sequence (Q01097 27-1482, other chains not shown): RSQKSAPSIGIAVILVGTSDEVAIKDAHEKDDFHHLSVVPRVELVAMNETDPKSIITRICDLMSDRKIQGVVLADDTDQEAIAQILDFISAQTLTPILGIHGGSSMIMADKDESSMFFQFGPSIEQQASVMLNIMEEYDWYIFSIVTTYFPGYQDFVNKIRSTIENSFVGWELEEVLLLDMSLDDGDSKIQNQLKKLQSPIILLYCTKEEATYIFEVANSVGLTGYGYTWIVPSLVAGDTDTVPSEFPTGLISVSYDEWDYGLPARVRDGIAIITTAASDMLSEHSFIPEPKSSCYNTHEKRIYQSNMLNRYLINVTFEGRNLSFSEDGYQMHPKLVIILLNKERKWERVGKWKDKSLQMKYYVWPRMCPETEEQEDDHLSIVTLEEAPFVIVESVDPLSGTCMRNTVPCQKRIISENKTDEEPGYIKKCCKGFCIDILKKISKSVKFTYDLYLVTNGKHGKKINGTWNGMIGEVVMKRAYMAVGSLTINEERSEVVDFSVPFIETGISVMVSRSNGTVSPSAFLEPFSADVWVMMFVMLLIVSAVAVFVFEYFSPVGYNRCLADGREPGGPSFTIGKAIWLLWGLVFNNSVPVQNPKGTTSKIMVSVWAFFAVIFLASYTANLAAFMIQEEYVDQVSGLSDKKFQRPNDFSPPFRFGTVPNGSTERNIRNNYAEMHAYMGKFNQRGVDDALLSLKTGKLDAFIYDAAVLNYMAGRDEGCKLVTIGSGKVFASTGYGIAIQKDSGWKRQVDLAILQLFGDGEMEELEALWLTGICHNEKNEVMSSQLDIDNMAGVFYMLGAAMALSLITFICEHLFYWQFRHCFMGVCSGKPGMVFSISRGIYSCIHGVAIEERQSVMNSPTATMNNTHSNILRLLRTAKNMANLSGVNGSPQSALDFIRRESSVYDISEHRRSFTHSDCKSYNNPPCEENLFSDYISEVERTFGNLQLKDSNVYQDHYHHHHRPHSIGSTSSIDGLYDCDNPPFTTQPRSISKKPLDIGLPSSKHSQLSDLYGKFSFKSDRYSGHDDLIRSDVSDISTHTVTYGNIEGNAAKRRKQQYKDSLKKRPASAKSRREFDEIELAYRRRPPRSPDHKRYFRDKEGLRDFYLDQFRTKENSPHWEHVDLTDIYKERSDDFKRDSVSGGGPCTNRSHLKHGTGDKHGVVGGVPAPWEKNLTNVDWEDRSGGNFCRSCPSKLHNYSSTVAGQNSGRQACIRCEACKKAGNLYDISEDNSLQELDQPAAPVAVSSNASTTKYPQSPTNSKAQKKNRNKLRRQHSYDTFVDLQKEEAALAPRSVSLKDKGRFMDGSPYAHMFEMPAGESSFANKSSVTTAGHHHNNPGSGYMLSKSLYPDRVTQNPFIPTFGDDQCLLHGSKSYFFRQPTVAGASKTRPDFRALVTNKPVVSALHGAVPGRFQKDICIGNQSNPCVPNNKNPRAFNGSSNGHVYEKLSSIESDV

`O=C(NCCC1CCN(c2ccc(Cl)cc2)CC1)c1ccc(=O)[nH]c1` [Compound I-1] showed a melting point of 232 to 234 °C. The IC50 on NR1/NR2B receptor (setting [2]) turned out to be 0.043 µM. For the compound `O=C(NCCC1CCN(c2ccc(C(F)(F)F)cc2)CC1)c1ccc(=O)[nH]c1` [Compound I-2], the melting point was 232 to 233 °C (dec.). For the same compound, the IC50 in series [1] (setting [3]) came out at 0.014 µM. The IC50 on NR1/NR2B receptor (setting [2]) was 0.033 µM. For `O=C(NCCC1CCN(c2ccc(Br)cc2)CC1)c1ccc(=O)[nH]c1` [Compound I-5], the melting point was 236 to 238 °C (dec.). Also, the IC50 in series [1] (setting [3]) was determined as 0.02 µM. Also, the IC50 at NR1/NR2B receptor (setting [2]) is 0.043 µM. For `O=C(NCCC1CCN(c2ccc(C(F)(F)F)cn2)CC1)c1ccc(=O)[nH]c1` [Compound I-6], the melting point fell in the range of 232 to 234 °C. Also, the IC50 in series [1] (setting [3]) was 0.039 µM. The compound `O=C(CC1(O)CCN(c2ccc(C(F)(F)F)cn2)CC1)Nc1ccc2[nH]c(=O)oc2c1` [Compound I-61] registered a melting point of 218 to 219 °C. For the same compound, the IC50 in series [1] (setting [3]) is 0.037 µM. Compound `O=C(CC1CCN(c2ccc(C(F)(F)F)cn2)CC1)Nc1ccc2[nH]c(=O)oc2c1` [Compound I-62] gave a melting point of 229 to 230 °C. In addition, in series [1] (setting [3]), the IC50 came out at 0.092 µM. `O=C(CC1=CCN(c2ccc(C(F)(F)F)cn2)CC1)Nc1ccc2[nH]c(=O)oc2c1` [Compound I-63] yielded a melting point of 236 to 237 °C. Also, the IC50 in series [1] (setting [3]) was found to be 0.079 µM.

Consider `O=C(CC1(O)CCN(c2ccc(C(F)(F)F)cc2)CC1)Nc1ccc2c(c1)CC(=O)N2` [Compound I-65], for which the melting point is 260 to 261 °C. Take `O=C(C=C1CCN(c2ccc(C(F)(F)F)cn2)CC1)Nc1ccc2[nH]c(=O)sc2c1` [Compound I-66]: the melting point fell in the range of 219 to 220 °C. For the same compound, the IC50 in series [1] (setting [3]) turned out to be 0.025 µM. The IC50 at NR1/NR2B receptor (setting [2]) came to 0.09 µM.

Take `O=C(NCCC1(O)CCN(c2ccc(C(F)(F)F)cn2)CC1)c1cn[nH]c1` [Compound I-67]: the melting point is 199 to 200 °C. Same read-out and setting: in the case of `CC(=O)c1ccc(N2CCN(C(=O)C(=O)Nc3ccc4[nH]c(=O)oc4c3)CC2)cc1` [Compound I-203] it was 264 to 266 °C (dec.). `O=C(Nc1ccc2[nH]c(=O)oc2c1)C(=O)N1CCN(c2ccc(Cl)cn2)CC1` [Compound I-204]: the melting point was 241 to 243 °C. Further, the IC50 at NR1/NR2B receptor (setting [4]) is at most 0.1 µM. `O=C(C=C1CCN(c2ccc(F)c(Cl)c2)CC1)Nc1ccc2[nH]c(=O)oc2c1` [Compound I-205]: the melting point lay in the range of 209 to 211 °C. Moreover, the IC50 on NR1/NR2B receptor (setting [4]) is at most 0.1 µM. Compound `C[C@@H]1CN(C(=O)C(=O)Nc2ccc3[nH]c(=O)oc3c2)CCN1c1ccc(F)c(Cl)c1` [Compound I-206] came in with a melting point of 107 to 108 °C. The IC50 at NR1/NR2B receptor (setting [4]) is at most 0.1 µM. The compound `O=C(NCCC1CCN(c2ccc(Cl)c(F)c2)CC1)c1ccc(=O)[nH]c1` [Compound I-208] returned a melting point of 230 to 232 °C. In addition, the IC50 in series [1] (setting [5]) was at most 0.1 µM. Further, the IC50 on NR1/NR2B receptor (setting [4]) was at most 0.1 µM. For `C[C@@H]1CN(C(=O)C(=O)Nc2ccc3[nH]c(=O)oc3c2)CCN1c1ccc(C(F)(F)F)cn1` [Compound I-209], the melting point lay within 197 to 198 °C. Further, the IC50 in series [1] (setting [5]) was at most 0.1 µM. In addition, the IC50 on NR1/NR2B receptor (setting [4]) is at most 0.1 µM.

In turn, `COc1ccc(N2CCN(C(=O)C(=O)Nc3ccc4[nH]c(=O)oc4c3)CC2)cc1Cl` [Compound I-247] gave a melting point of 224 to 226 °C. Moreover, the IC50 on NR1/NR2B receptor (setting [4]) was at most 0.1 µM. Compound `COc1ccc(N2CCN(C(=O)C(=O)Nc3ccc4[nH]c(=O)oc4c3)C[C@H]2C)cc1Cl` [Compound I-248] had a melting point of 118 to 120 °C. `COc1ccc(N2CCN(C(=O)C(=O)Nc3ccc4[nH]c(=O)oc4c3)[C@H](C)C2)cc1Cl` [Compound I-249] had a melting point of 123 to 125 °C. Also, the IC50 in series [1] (setting [5]) is at most 0.1 µM. In addition, the IC50 at NR1/NR2B receptor (setting [4]) is at most 0.1 µM. With `COc1cc(N2CCN(C(=O)C(=O)Nc3ccc4[nH]c(=O)oc4c3)CC2)ccc1Cl` [Compound I-250], the melting point lay in the range of 201 to 203 °C. In turn, `COc1cc(N2CCN(C(=O)C(=O)Nc3ccc4[nH]c(=O)oc4c3)C[C@H]2C)ccc1Cl` [Compound I-251] displayed a melting point of 122 to 124 °C. On the same count and under the same terms, in the case of `CCOc1ccc(N2CCN(C(=O)C(=O)Nc3ccc4[nH]c(=O)oc4c3)CC2)cc1F` [Compound I-253] it was 226 to 228 °C.

The melting point is the temperature, or range, at which the solid turns liquid.
